Data on 13 compounds can be found in US20090156496A1, “METHODS AND COMPOSITIONS FOR TREATING AND PREVENTING PERIPHERAL NERVE DAMAGE” (CHILDREN'S MEDICAL CENTER CORPORATION, INC., priority 2006, published 2009).

For one assay, the system named is mature RGCs. The conditions noted are these: previously reported; cited from earlier work.
The subject of assay [1] is RGCs. Description: axon outgrowth in primary adult retinal cultures. In kind it is cell-based, rat. The conditions noted are these: for effect of inhibitor on oncomodulin-induced axon outgrowth: PD98059 5 μM, LY 294002 20 μM, Jaki 20 nM, KN92 10 μM, ActD 8 nM. How it is done: Protein A beads (Sigma) were incubated with either rabbit anti-OM antiserum (Swant) or normal rabbit serum (Invitrogen) for 16 h at 4° C. After extensive rinsing, beads with adsorbed IgGs were mixed with MCM (1 ml 10× concentrate, collected 8 h after zymosan treatment) for 24 h at 4° C. and then pelleted down by centrifugation. We tested 5 μl of the supernatants or untreated MCM for oncomodulin by western blotting. Bioactivity of immune-depleted and control MCM was tested in dissociated RGC cultures as described below at a 1:4 dilution, a concentration found to give a near-maximal response.
(§1) Adult rat retinal cultures were prepared as described^21. […] One week later, retinas were dissected, dissociated, and the cells plated in defined, serum-free medium. Axon growth (% RGCs extending axons ≧30 μm, ≧70 μm or ≧140 μm in length) was evaluated after 3 d in quadruplicate samples in a blinded fashion. All experiments were repeated at least three separate times. In some instances, cells were immunostained with GAP-43 antibody (1:500, Chemicon).

Assay [2] relates to RGCs. Description: RGC survival in primary retinal cultures. The assay is classed as cell-based, rat. How it is done: as §1
The subject of the next assay is DRG neurons. Description: neurite outgrowth of DRG neurons cultured after intraganglionic injection in vivo. The assay is classed as cell-based, rat. As to conditions: CSPG substrate. How it is done: L4-L5 DRGs from adult male Sprague-Dawley rats (250-300 g) were injected with 5 μl of saline or oncomodulin (200 ng μl^−1). After 7 d, injected ganglia were dissected and single-cell suspensions were prepared as described^50. Cells were cultured on laminin (Sigma) with or without CSPGs (Chemicon) for 20 h or 40 h. In some cases, chondroitinase ABC (0.5 U ml^−1, Seikagaku) was added. Neurite outgrowth was visualized by Tuj1 antibody to class III β-tubulin (1:5,000, Babco) and quantified in quadruplicate samples by a blinded observer. In other studies, L4-L5 DRG neurons were cultured in the presence of absence of oncomodulin, mannose and/or forskolin in RPMI-1640 to limit spontaneous outgrowth. Cells were fixed and immunostained after 3 d and evaluated for outgrowth.

Entries after “also recorded” stand apart in the source; their conditions may differ. Numbered stars: 1 amine (or outer) side, 2 acyl side, 3 side chain; on linkers, the order of the positions; unused ones are H or OH. Bridge positions count the residues as written; N and C are the ends. Square brackets hold non-standard residues; d marks the D form. Peptide text beside a SMILES is read from it. I, II: the chains in the order shown. Actinocin(9to1) = Cc1c2oc3c(C)ccc(C(=O)[*:1])c3nc-2c(C(=O)[*:2])c(N)c1=O; NMeV = CN[C@H](C(=O)O)C(C)C; Sar = CNCC(=O)O

Regarding nerve growth factor, in the assay on mature RGCs, the “axon extension of mature RGCs in culture” value is “do not stimulate mature RGCs to extend axons”. On to `Cc1c2oc3c(C)ccc(C(=O)N[C@@H]4C(=O)N[C@H](C(C)C)C(=O)N5CCC[C@H]5C(=O)N(C)CC(=O)N(C)[C@@H](C(C)C)C(=O)O[C@@H]4C)c3nc-2c(C(=O)N[C@@H]2C(=O)N[C@H](C(C)C)C(=O)N3CCC[C@H]3C(=O)N(C)CC(=O)N(C)[C@@H](C(C)C)C(=O)O[C@@H]2C)c(N)c1=O` [actinomycin D, reference compound] (I: T[dV]P[Sar][NMeV] / II: T[dV]P[Sar][NMeV]; ester I:1-I:C, II:1-II:C; linker I:N-II:N via Actinocin(9to1)), for which the “effect of inhibitor on oncomodulin-induced axon outgrowth” value with RGCs [1] (KN93 10 μM) is reported as “blocked the effects of oncomodulin on outgrowth”. Besides, in the assay with RGCs [2] (retinal culture), the RGC survival result was “without altering RGC survival”. `COc1ccc(S(=O)(=O)N(CCO)c2ccccc2CN(C)C/C=C/c2ccc(Cl)cc2)cc1` [KN93, reference compound]: the “effect of inhibitor on outgrowth induced by forskolin plus mannose” value in the assay with RGCs [1] (KN93 10 μM, three inhibitors combined) is “without altering the effect of mannose and forskolin”. Besides, in the assay with RGCs [1] (KN93 10 μM), the “effect of inhibitor on oncomodulin-induced axon outgrowth” value is “blocked the effect of oncomodulin fully”. For the compound interleukin-6, the “axon extension of mature RGCs in culture” value in the assay on mature RGCs is on record as “do not stimulate mature RGCs to extend axons”. For the compound epidermal growth factor, the “axon extension of mature RGCs in culture” value with mature RGCs is recorded as “do not stimulate mature RGCs to extend axons”. Take Lysozyme: the “axon outgrowth from RGCs” value with RGCs [1] (data not shown) is “did not enhance outgrowth”. Besides, in the assay on RGCs [2] (data not shown), the “diminished RGC survival” value is on record as around 25%. `COc1cccc(-c2cc(=O)c3ccccc3o2)c1N` [PD98059, reference compound]: in the assay on RGCs [1] (KN93 10 μM), the “effect of inhibitor on oncomodulin-induced axon outgrowth” value is recorded as “not blocked; also recorded: enhanced outgrowth slightly”. As for `CCCC(=O)Nc1ncnc2c1ncn2[C@@H]1O[C@@H]2COP(=O)(O)O[C@H]2[C@H]1OC(=O)CCC` [dibutyryl cAMP, reference compound], the “effect on oncomodulin-induced outgrowth” value in the assay on RGCs [1] ([dB-cAMP] above 250 μM) is reported as “further increases diminished outgrowth”; with RGCs [1] ([dB-cAMP] up to 250 μM), “enhanced the effect of oncomodulin”.

chondroitinase ABC: the “DRG neurite outgrowth on nonpermissive substrate” value in the assay on DRG neurons is on record as “promoted some outgrowth”. Take calmodulin: the “axon outgrowth bioassay, Ca2+-binding proteins” value in the assay with RGCs [1] (15 nM or tenfold higher concentration, forskolin and mannose present) is “inactive”. With fibroblast growth factor-2, the “axon extension of mature RGCs in culture” value in the assay on mature RGCs was “do not stimulate mature RGCs to extend axons”. Turning to `CC(C)(C)c1nc2c3cc[nH]c(=O)c3c3cc(F)ccc3c2[nH]1` [Jaki, reference compound], the “effect of inhibitor on oncomodulin-induced axon outgrowth” value in the assay on RGCs [1] (KN93 10 μM) is reported as “did not diminish oncomodulin's activity”.

Turning to `COc1ccc(S(=O)(=O)Nc2ccccc2CN(C)C/C=C/c2ccc(Cl)cc2)cc1` [KN92, reference compound], the “effect of inhibitor on oncomodulin-induced axon outgrowth” value with RGCs [1] (KN93 10 μM) was “did not substantially diminish outgrowth”.
